According to ChEMBL document CHEMBL3886628, “Substituted 3-(biphenyl-3-yl)-4-hydroxy-8-methoxy-1-azaspiro[4.5]dec-3-en-2-one” (2016):
Where “and” joins values, the source holds several entries; their conditions need not be identical. Equal values may be shown once.

Assays:
Acetyl-CoA carboxylase 2 = Acetyl-CoA carboxylase 2 (Homo sapiens, UniProt O00763)
Acetyl-CoA carboxylase 1 = Acetyl-CoA carboxylase 1 (Homo sapiens, UniProt Q13085); assay: Typical concentrations were in the range of 1.75 μl.

Sequence of Acetyl-CoA carboxylase 2 (O00763 whole entry): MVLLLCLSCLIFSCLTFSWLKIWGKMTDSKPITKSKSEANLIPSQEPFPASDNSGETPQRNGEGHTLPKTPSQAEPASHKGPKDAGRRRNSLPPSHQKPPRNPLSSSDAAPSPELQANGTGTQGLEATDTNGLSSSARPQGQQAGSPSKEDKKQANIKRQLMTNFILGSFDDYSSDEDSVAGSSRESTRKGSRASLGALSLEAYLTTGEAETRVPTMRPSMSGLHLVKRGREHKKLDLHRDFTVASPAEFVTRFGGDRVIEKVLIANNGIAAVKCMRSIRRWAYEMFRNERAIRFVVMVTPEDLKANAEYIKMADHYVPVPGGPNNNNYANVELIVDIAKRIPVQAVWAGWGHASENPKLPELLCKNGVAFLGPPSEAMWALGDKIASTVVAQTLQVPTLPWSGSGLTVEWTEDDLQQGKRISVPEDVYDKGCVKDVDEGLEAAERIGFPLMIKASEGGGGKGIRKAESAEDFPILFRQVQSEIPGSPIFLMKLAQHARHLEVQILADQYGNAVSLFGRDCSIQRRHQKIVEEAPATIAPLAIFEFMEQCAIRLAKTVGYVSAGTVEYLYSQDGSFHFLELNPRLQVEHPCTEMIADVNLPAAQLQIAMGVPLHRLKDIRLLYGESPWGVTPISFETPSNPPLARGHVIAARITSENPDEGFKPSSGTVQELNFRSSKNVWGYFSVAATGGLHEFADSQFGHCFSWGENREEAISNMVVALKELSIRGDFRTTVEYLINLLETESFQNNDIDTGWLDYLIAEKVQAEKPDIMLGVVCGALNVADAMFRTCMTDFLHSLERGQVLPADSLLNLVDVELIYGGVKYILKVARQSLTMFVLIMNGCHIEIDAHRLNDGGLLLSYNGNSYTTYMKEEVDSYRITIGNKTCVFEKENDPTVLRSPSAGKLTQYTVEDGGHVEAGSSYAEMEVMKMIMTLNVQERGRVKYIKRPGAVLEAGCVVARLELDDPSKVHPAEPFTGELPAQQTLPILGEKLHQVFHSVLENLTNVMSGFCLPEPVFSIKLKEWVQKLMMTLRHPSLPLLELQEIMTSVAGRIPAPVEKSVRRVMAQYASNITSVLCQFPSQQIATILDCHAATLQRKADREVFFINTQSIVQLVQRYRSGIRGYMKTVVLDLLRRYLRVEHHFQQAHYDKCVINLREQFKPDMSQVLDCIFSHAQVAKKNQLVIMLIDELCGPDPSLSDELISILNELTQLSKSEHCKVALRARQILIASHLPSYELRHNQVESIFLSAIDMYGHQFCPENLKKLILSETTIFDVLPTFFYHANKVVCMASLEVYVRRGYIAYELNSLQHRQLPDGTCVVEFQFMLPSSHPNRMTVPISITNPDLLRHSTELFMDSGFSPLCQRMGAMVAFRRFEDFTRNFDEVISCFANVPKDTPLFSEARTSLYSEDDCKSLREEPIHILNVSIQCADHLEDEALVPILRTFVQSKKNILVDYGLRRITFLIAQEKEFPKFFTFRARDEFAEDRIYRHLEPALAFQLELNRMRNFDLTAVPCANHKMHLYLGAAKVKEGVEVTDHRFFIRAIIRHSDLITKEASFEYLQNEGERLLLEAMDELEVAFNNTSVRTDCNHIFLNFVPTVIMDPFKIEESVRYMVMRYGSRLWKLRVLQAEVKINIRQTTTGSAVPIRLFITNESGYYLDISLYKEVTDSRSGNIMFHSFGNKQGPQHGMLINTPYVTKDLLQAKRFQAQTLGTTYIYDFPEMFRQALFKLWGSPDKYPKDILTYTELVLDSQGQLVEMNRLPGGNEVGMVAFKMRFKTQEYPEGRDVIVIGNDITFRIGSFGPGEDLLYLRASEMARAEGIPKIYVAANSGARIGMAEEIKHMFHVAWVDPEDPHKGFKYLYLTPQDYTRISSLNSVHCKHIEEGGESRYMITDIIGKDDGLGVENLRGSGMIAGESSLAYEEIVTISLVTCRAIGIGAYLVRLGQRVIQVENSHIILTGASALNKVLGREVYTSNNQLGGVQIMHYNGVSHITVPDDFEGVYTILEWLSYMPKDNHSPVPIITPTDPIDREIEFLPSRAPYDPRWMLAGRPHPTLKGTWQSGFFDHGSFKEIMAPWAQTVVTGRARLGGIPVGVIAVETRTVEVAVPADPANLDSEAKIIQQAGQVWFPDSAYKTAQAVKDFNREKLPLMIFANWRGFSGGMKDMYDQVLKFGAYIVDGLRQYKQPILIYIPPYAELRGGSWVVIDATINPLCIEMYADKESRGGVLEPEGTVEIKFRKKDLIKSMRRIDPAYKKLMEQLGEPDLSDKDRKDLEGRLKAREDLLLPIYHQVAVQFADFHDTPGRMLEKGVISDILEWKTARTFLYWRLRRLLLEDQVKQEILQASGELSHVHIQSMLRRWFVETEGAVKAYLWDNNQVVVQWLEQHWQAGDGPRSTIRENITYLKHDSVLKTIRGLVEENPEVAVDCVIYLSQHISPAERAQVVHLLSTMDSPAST

SMILES	IC50 (Acetyl-CoA carboxylase 2)	IC50 (Acetyl-CoA carboxylase 1)
CO[C@]1(C(F)(F)F)CC[C@]2(CC1)NC(=O)C(c1cc(-c3ccc(Cl)c(F)c3)ccc1C)=C2O	2760 nM and 1690 nM and 2010 nM	92 nM and 119 nM
CO[C@]1(C(F)(F)F)CC[C@]2(CC1)NC(=O)C(c1cc(-c3ccc(Cl)cc3)ccc1C)=C2O		231 nM and 244 nM and 44 nM and 67 nM and 78 nM and 162 nM and 186 nM and 99 nM
COC[C@]1(OC)CC[C@@]2(CC1)NC(=O)C(c1cc(-c3ccc(Cl)c(F)c3)ccc1C)=C2O		104 nM and 133 nM and 84 nM
